Experiments:
Assay in all cases: Kinase profiling in a biochemical assay panel (mobility shift assays and ELISA), %-inhibition at 1 μM; selectivity entropy
[1] = target: T1, panel of more than 300 wild-type and mutant kinases (313 kinase panel) (Homo sapiens, UniProt P29322)
T1 sequence (P29322 28-1005): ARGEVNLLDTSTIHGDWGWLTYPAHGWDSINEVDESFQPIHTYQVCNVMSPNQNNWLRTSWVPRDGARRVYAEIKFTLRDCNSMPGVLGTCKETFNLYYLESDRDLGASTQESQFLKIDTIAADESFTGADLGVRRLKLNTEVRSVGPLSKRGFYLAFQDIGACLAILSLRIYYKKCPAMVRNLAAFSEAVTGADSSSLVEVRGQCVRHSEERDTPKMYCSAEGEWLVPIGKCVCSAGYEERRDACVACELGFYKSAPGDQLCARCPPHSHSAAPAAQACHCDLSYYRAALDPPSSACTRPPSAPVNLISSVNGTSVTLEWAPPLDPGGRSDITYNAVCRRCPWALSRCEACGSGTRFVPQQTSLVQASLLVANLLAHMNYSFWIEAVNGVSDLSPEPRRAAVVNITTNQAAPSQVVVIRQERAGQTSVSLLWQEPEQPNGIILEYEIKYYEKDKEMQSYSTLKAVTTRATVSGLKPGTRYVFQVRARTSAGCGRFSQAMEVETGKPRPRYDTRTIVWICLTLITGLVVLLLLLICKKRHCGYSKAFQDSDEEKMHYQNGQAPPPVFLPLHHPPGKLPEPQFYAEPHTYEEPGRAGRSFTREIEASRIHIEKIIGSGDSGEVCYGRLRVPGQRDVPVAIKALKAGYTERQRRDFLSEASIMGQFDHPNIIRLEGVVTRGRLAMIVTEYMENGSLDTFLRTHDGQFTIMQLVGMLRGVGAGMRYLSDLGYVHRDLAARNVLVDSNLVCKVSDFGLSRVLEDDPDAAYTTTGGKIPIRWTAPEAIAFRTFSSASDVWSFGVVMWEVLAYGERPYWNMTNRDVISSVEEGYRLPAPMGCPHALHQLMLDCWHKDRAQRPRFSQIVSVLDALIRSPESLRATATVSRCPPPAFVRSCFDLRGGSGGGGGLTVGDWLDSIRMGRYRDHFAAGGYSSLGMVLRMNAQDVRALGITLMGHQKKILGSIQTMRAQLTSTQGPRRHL

[2] = target: panel of more than 300 wild-type and mutant kinases (313 kinase panel) (Homo sapiens, UniProt P24723)
[3] = target: panel of more than 300 wild-type and mutant kinases (313 kinase panel) (Homo sapiens, UniProt P14616)
[4] = target: panel of more than 300 wild-type and mutant kinases (313 kinase panel) (Homo sapiens, UniProt P07949, G691S)
[5] = target: panel of more than 300 wild-type and mutant kinases (313 kinase panel) (Homo sapiens, UniProt P29317)
[6] = target: T2, panel of more than 300 wild-type and mutant kinases (313 kinase panel) (Homo sapiens, UniProt P51955)
T2 sequence (P51955 1-445): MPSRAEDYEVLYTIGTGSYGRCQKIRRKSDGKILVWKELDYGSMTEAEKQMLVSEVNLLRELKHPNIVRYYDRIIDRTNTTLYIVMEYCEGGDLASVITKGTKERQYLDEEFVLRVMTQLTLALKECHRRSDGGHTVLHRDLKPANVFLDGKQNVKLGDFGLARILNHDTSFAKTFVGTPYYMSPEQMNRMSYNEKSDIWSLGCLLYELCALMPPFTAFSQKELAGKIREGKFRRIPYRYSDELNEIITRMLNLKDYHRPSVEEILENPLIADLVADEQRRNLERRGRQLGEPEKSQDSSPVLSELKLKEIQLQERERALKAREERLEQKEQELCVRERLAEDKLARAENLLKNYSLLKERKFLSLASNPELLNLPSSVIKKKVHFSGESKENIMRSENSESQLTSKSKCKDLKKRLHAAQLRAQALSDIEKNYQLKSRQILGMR

[7] = target: panel of more than 300 wild-type and mutant kinases (313 kinase panel) (Homo sapiens, UniProt Q9H2X6)
[8] = target: panel of more than 300 wild-type and mutant kinases (313 kinase panel) (Homo sapiens, UniProt P53355)

| Compound | %-inhibition of EPHA8 ([1]; kinase EPHA8, compound at 1 μM) | %-inhibition of PKCη ([2]; kinase PKCη, 1 μM) | %-inhibition of IRR ([3]; kinase IRR, compound at 1 μM) | %-inhibition of RET(G691S) ([4]; kinase RET(G691S), 1 μM) | %-inhibition of EPHA2 ([5]; kinase EPHA2, compound at 1 μM) | %-inhibition of NEK2 ([6]; kinase NEK2, 1 μM) | %-inhibition of HIPK2 ([7]; kinase HIPK2, compound at 1 μM) | %-inhibition of DAPK1 ([8]; kinase DAPK1, compound at 1 μM) | %-inhibition of EPHA8 ([1]; 1 µM) | %-inhibition of PKCη ([2]; 1 µM) | %-inhibition of EPHA2 ([5]; 1 µM) | %-inhibition of IRR ([3]; 1 µM) | %-inhibition of RET(G691S) ([4]; 1 µM) | %-inhibition of NEK2 ([6]; 1 µM) | %-inhibition of HIPK2 ([7]; 1 µM) | %-inhibition of DAPK1 ([8]; 1 µM) |
| --- | --- | --- | --- | --- | --- | --- | --- | --- | --- | --- | --- | --- | --- | --- | --- | --- |
| COc1cc(Nc2c(C#N)cnc3cc(OCCCN4CCN(C)CC4)c(OC)cc23)c(Cl)cc1Cl [bosutinib] | 99% | 1.14% | 57% | 94% |  |  |  |  |  |  |  |  |  |  |  |  |
| COc1cc2nccc(Oc3ccc(NC(=O)C4(C(=O)Nc5ccc(F)cc5)CC4)cc3)c2cc1OC [cabozantinib] | 98% | 8.55% | 66% |  | 98% | -0.384% | 60% | -10% |  |  |  |  |  |  |  |  |
| C[C@@H](Oc1cc(-c2cnn(C3CCNCC3)c2)cnc1N)c1c(Cl)ccc(F)c1Cl [crizotinib] | 82% | -8% |  |  |  | -2.69% | -6.53% | -4% |  |  |  |  |  |  |  |  |
| CC(C)(C)c1nc(-c2cccc(NS(=O)(=O)c3c(F)cccc3F)c2F)c(-c2ccnc(N)n2)s1 [dabrafenib] | 35% | 9% | 10% | 53% | 7% |  | 42% | -0.54% |  |  |  |  |  |  |  |  |
| Cc1nc(Nc2ncc(C(=O)Nc3c(C)cccc3Cl)s2)cc(N2CCN(CCO)CC2)n1 [dasatinib] |  | 3% | -16% |  |  |  | 6% |  |  |  |  |  |  |  |  |  |
| C#Cc1cccc(Nc2ncnc3cc(OCCOC)c(OCCOC)cc23)c1 [erlotinib] |  |  |  |  |  |  |  |  | 33% | 6.34% | 18% | -12% | 73% | -0.556% | 10% | 1.08% |
| CO[C@H]1C[C@@H]2CC[C@@H](C)[C@@](O)(O2)C(=O)C(=O)N2CCCC[C@H]2C(=O)O[C@H]([C@H](C)C[C@@H]2CC[C@@H](OCCO)[C@H](OC)C2)CC(=O)[C@H](C)/C=C(\C)[C@@H](O)[C@@H](OC)C(=O)[C@H](C)C[C@H](C)/C=C/C=C/C=C/1C [everolimus] | -3.63% | 9% | 0.808% | -4.43% | -4% | -7% | -6% | -15% |  |  |  |  |  |  |  |  |
| O=S(=O)(c1cccc2cnccc12)N1CCCNCC1 [fasudil] | -10% | 35% | 0.15% | -0.0546% | -7% | -1% | -1.86% | 10% |  |  |  |  |  |  |  |  |
| CS(=O)(=O)CCNCc1ccc(-c2ccc3ncnc(Nc4ccc(OCc5cccc(F)c5)c(Cl)c4)c3c2)o1 [lapatinib] |  | 2.46% | -4% |  | 1.22% | -3.7% | 1.46% |  |  |  |  |  | -3% |  |  | -6% |
| Cc1cn(-c2cc(NC(=O)c3ccc(C)c(Nc4nccc(-c5cccnc5)n4)c3)cc(C(F)(F)F)c2)cn1 [nilotinib] | 98% | 5.43% |  |  |  | -19% | 16% | -11% |  |  | 95% | -0.717% | 13% |  |  |  |
| Cc1ccc(Nc2nccc(N(C)c3ccc4c(C)n(C)nc4c3)n2)cc1S(N)(=O)=O [pazopanib] | 43% | -1.67% | 16% |  | 15% | 27% | 5.51% | 0.316% |  |  |  |  |  |  |  |  |
| Cc1ccc(C(=O)Nc2ccc(CN3CCN(C)CC3)c(C(F)(F)F)c2)cc1C#Cc1cnc2cccnn12 [ponatinib] | 100% | 5.45% |  | 102% | 102% |  |  |  |  |  |  |  |  |  |  |  |
| CNC(=O)c1cc(Oc2ccc(NC(=O)Nc3ccc(Cl)c(C(F)(F)F)c3)c(F)c2)ccn1 [regorafenib] | 95% | -9% | -4% | 103% | 88% | -6.65% | 78% | -11% |  |  |  |  |  |  |  |  |
| N#CC[C@H](C1CCCC1)n1cc(-c2ncnc3[nH]ccc23)cn1 [ruxolitinib] | 0.379% | -1.36% | 0.404% |  | 28% | -4% |  | 71% |  |  |  |  |  |  | 9% |  |
| CO[C@H]1C[C@@H]2CC[C@@H](C)[C@@](O)(O2)C(=O)C(=O)N2CCCC[C@H]2C(=O)O[C@H]([C@H](C)C[C@@H]2CC[C@@H](OC(=O)C(C)(CO)CO)[C@H](OC)C2)CC(=O)[C@H](C)/C=C(\C)[C@@H](O)[C@@H](OC)C(=O)[C@H](C)C[C@H](C)/C=C/C=C/C=C/1C [temsirolimus] | -6.55% | 8% | -13% | -6% | -5.58% | -5% | 0.538% | -8% |  |  |  |  |  |  |  |  |
| CC(=O)Nc1cccc(-n2c(=O)n(C3CC3)c(=O)c3c(Nc4ccc(I)cc4F)n(C)c(=O)c(C)c32)c1 [trametinib] | -8% | -8% |  | -1.48% | -8.53% | 2.76% | 0.155% | -6% |  |  |  | 1.35% |  |  |  |  |
| COc1cc2c(Nc3ccc(Br)cc3F)ncnc2cc1OCC1CCN(C)CC1 [vandetanib] | 98% | -9% | -3.23% |  | 86% | -7.42% | -11% | -9% |  |  |  |  |  |  |  |  |

— paper PMC3961306, “Comparison of the Cancer Gene Targeting and Biochemical Selectivities of All Targeted Kinase Inhibitors Approved for Clinical Use” (PLoS ONE, 2014)
